Results as given in patent US10799507B2, “5-(7H-pyrrolo[2,3-d]pyrimidin-4-yl)-5-azaspiro[2.5]octane-8-carboxylic acid derivatives as novel JAK kinase inhibitors” (LEO Pharma A/S, priority 2017, dated 2020).

Experiments:
[1] = in vitro metabolic stability in human liver microsomes; assay type: in vitro ADME; details: human, liver microsomes, 0.5 μM compound, 0.5 mg/mL microsomes, NADPH, 40 min, 37° C.; read-out: Human liver microsome Clapp (apparent intrinsic clearance)
How it was run: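 Compounds at 0.5 μM incubated in duplicate with human liver microsomes (0.5 mg/mL), phosphate buffer and NADPH at 37 °C for 40 min, sampled at 0, 5, 10, 20, 40 min into cold acetonitrile. LC-TOF-MS depletion gave elimination rate constant, from which apparent intrinsic clearance (Clapp) was calculated.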

JAK3 = JAK3 (Homo sapiens (Human), UniProt P52333); experiment: JAK kinase assay (HTRF), JAK3; assay type: biochemical; details: catalytic domain, ATP at Km (2 μM)
How it was run: (§1)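 Catalytic-domain human kinases, GST-tagged TYK2 (aa 871-1187) and His-tagged JAK3, phosphorylate 1 μM TK Substrate-Biotin for 20-30 min at RT in 50 mM Hepes pH 7.0, 5 mM MgCl2, ATP at Km (TYK2 13 μM with 50 nM SEB; JAK3 2 μM). Phosphorylation detected by HTRF.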

JAK2 = JAK2 (Homo sapiens (Human), UniProt O60674); experiment: JAK kinase assay (HTRF), JAK2; assay type: biochemical; details: catalytic domain, ATP at Km (4 μM)
How it was run: (§2)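 Catalytic-domain human JAK1 (GST-tagged, aa 850-1154) or His-tagged JAK2, baculovirus-expressed, phosphorylated 1 µM biotinylated TK peptide at Km ATP (JAK1 7 µM, 10 mM MgCl2, 50 nM SEB; JAK2 4 µM, 5 mM MgCl2) in pH 7.0 Hepes, 20-30 min RT. EDTA stop; overnight streptavidin-XL665/cryptate HTRF read.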

TYK2 = TYK2 (Homo sapiens (Human), UniProt P29597); experiment: JAK kinase assay (HTRF), TYK2; assay type: biochemical; details: catalytic domain, ATP at Km (13 μM)
How it was run: as §1

JAK1 = JAK1 (Homo sapiens (Human), UniProt P23458); experiment: JAK kinase assay (HTRF), JAK1; assay type: biochemical; details: catalytic domain, ATP at Km (7 μM)
How it was run: as §2

Chain of JAK3 (P52333 822-1111): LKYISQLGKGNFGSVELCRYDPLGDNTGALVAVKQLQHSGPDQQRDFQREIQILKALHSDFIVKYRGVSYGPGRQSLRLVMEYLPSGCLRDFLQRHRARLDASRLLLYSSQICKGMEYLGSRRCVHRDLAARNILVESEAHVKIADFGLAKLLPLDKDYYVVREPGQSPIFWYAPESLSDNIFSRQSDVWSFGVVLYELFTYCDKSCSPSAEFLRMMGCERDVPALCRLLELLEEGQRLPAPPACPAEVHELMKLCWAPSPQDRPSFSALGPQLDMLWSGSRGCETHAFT
Chain of TYK2 (P29597 871-1187): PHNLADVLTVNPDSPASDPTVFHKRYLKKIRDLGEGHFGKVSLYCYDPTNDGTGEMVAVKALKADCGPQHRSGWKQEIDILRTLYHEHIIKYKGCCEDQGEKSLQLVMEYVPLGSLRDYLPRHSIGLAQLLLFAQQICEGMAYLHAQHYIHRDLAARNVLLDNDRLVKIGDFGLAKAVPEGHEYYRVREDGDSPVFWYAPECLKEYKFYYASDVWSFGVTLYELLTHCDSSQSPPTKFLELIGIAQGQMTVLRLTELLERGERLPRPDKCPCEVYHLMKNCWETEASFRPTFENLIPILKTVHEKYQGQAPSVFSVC
Chain of JAK1 (P23458 850-1154): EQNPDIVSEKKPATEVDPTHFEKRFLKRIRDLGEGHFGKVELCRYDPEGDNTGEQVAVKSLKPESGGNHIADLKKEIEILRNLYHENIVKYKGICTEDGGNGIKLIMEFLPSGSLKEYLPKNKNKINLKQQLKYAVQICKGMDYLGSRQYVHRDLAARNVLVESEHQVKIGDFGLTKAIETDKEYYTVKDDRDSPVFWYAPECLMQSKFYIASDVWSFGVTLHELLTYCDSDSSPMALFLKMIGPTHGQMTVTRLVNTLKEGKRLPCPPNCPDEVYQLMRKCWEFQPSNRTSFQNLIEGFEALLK
Chain of JAK2 (O60674 849-1124): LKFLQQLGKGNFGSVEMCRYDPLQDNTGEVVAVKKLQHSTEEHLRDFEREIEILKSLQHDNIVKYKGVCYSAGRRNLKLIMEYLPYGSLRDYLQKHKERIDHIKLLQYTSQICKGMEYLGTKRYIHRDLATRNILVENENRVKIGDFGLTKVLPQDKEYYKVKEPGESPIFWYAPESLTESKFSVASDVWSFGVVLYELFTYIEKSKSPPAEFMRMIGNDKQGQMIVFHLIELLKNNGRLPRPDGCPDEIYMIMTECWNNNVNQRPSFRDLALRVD

Compound | CLint scaled at 0.5 μM [1] [L/h/kg] | EC50 (JAK3) [nM] | EC50 (JAK2) [nM] | EC50 (TYK2) [nM] | EC50 (JAK1) [nM]
O=C(OCC1CC(F)(F)C1)[C@H]1CCN(c2ncnc3[nH]ccc23)CC12CC2 [Example 154, (3,3-difluorocyclobutyl)methyl (8S)-5-(7H-pyrrolo[2,3-d]pyrimidin-4-yl)-5-azaspiro[2.5]octane-8-carboxylate] | 8.94 | 5.1 | 1.7 | 15.7 | 0.9
O=C(OCC1CC(F)(F)C1)[C@@H]1CCN(c2ncnc3[nH]ccc23)CC12CC2 [Example 155, (3,3-difluorocyclobutyl)methyl (8R)-5-(7H-pyrrolo[2,3-d]pyrimidin-4-yl)-5-azaspiro[2.5]octane-8-carboxylate] | > 12 | 144 | 58 | 1280 | 30
O=C(OCC1(CO)CC1)[C@H]1CCN(c2ncnc3[nH]ccc23)CC12CC2 [Example 156, [1-(hydroxymethyl)cyclopropyl]methyl (8S)-5-(7H-pyrrolo[2,3-d]pyrimidin-4-yl)-5-azaspiro[2.5]octane-8-carboxylate] | 5.64 | 20.4 | 5.4 | 30 | 4
O=C(OCC1(CO)CCC1)[C@H]1CCN(c2ncnc3[nH]ccc23)CC12CC2 [Example 157, [1-(hydroxymethyl)cyclobutyl]methyl (8S)-5-(7H-pyrrolo[2,3-d]pyrimidin-4-yl)-5-azaspiro[2.5]octane-8-carboxylate] | > 12 | 6.6 | 2.1 | 9 | 0.8
O=C(OCC1(CO)CCCC1)[C@H]1CCN(c2ncnc3[nH]ccc23)CC12CC2 [Example 159, [1-(hydroxymethyl)cyclopentyl]methyl (8S)-5-(7H-pyrrolo[2,3-d]pyrimidin-4-yl)-5-azaspiro[2.5]octane-8-carboxylate] | > 12 | 3.1 | 1.3 | 5.1 | 0.5
O=C(OCC1(CO)CC(F)(F)C1)[C@H]1CCN(c2ncnc3[nH]ccc23)CC12CC2 [Example 160, [3,3-difluoro-1-(hydroxymethyl)cyclobutyl]methyl (8S)-5-(7H-pyrrolo[2,3-d]pyrimidin-4-yl)-5-azaspiro[2.5]octane-8-carboxylate] | 7.26 | 1.8 | 0.8 | 3.7 | 0.3
O=C(OCC1(CO)CS(=O)(=O)C1)[C@H]1CCN(c2ncnc3[nH]ccc23)CC12CC2 [Example 162, [3-(hydroxymethyl)-1,1-dioxo-thietan-3-yl]methyl (8S)-5-(7H-pyrrolo[2,3-d]pyrimidin-4-yl)-5-azaspiro[2.5]octane-8-carboxylate] | < 0.6 | 1.5 | 0.6 | 3.6 | 0.2
N#CCC1(COC(=O)[C@H]2CCN(c3ncnc4[nH]ccc34)CC23CC3)CC1 [Example 163, [1-(cyanomethyl)cyclopropyl]methyl (8S)-5-(7H-pyrrolo[2,3-d]pyrimidin-4-yl)-5-azaspiro[2.5]octane-8-carboxylate] | > 12 | 13 | 3.8 | 25 | 3.1
N#CCC1(COC(=O)C2CCN(c3ncnc4[nH]ccc34)CC23CC3)CC1 (stereo not drawn) [Example 164, [1-(cyanomethyl)cyclopropyl]methyl 5-(7H-pyrrolo[2,3-d]pyrimidin-4-yl)-5-azaspiro[2.5]octane-8-carboxylate] | > 12 | 19 | 5 | 70 | 4
